Test results as given in patent US8841233B2, “Herbicidal compositions comprising 4-amino-3-chloro-5-fluoro-6-(4-chloro-2-fluoro-3-methoxyphenyl) pyridine-2-carboxylic acid or a derivative thereof and 4-hydroxyphenyl-pyruvate dioxygenase (HPPD) inhibitors” (Dow Agrosciences LLC, priority 2012, dated 2014).

Test system: FIMMI
Assay: In-water applied weed control, transplanted paddy rice, greenhouse (Example II)
Format: in vivo, Fimbristylis miliacea (L.) Vahl
Procedure: Evaluation of in-Water Applied Herbicidal Mixtures for Weed Control in Transplanted Paddy Rice
Weed seeds or nutlets of the desired test plant species were planted in puddled soil (mud) prepared by mixing a shredded, non-sterilized mineral soil (50.5 percent silt, 25.5 percent clay, and 24 percent sand, with a pH of about 7.6 and an organic matter content of about 2.9 percent) and water at a 1:1 volumetric ratio. The prepared mud was dispensed in 365 mL aliquots into 16-ounce (oz.) non-perforated plastic pots with a surface area of 86.59 square centimeters (cm^2) leaving a headspace of 3 centimeters (cm) in each pot. Mud was allowed to dry overnight prior to planting or transplanting. Rice seeds were planted in Sun Gro MetroMix® 306 planting mixture, which typically has a pH of 6.0 to 6.8 and an organic matter content of about 30 percent, in plastic plug trays. Seedlings at the second or third leaf stage of growth were transplanted into 840 mL of mud contained in 32-oz. non-perforated plastic pots with a surface area of 86.59 cm^2 4 days prior to herbicide application. The paddy was created by filling the headspace of the pots with 2.5 to 3 cm of water. When required to ensure good germination and healthy plants, a fungicide treatment and/or other chemical or physical treatment was applied. The plants were grown for 4-22 days in a greenhouse with an approximate 14 h photoperiod which was maintained at about 29′C during the day and 26° C. during the night. Nutrients were added as Osmocote® (19:6:12, N:P:K+ minor nutrients) at 2 g per 16-oz. pot and 4 g per 32-oz. pot. Water was added on a regular basis to maintain the paddy flood, and supplemental lighting was provided with overhead metal halide 1000-Watt lamps as necessary. The plants were employed for testing when they reached the first through fourth true leaf stage.
Treatments consisted of the acid or esters of 4-amino-3-chloro-5-fluoro-6-(4-chloro-2-fluoro-3-methoxy-phenyl)pyridine-2-carboxylic acid (compound A) each formulated as an SC (suspension concentrate) and various herbicidal components alone and in combination. Forms of compound A were applied on an acid equivalent basis.
Other herbicidal components were applied on an active ingredient basis and included 4-hydroxyphenyl pyruvate dioxygenase (HPPD)-inhibiting herbicides mesotrione formulated as Callisto®, sulcotrione formulated as Mikado®, pyrazolynate formulated as Sunbird® 10% GR, and benzobicyclon formulated as Benzobicyclon 3.5% or technical material.
Treatment requirements for each compound or herbicidal component were calculated based upon the rates being tested, the concentration of active ingredient or acid equivalent in the formulation, an application volume of 2 mL per component per pot, and an application area of 86.59 cm^2 per pot.
For formulated compounds, a measured amount was placed in an individual 100 or 200 mL glass vial and was dissolved in a volume of 1.25% (v/v) Agri-Dex® crop oil concentrate to obtain application solutions.
For technical grade compounds, a weighed amount was placed in an individual 100 to 200 mL glass vial and was dissolved in a volume of acetone to obtain concentrated stock solutions. […] The concentrated stock solutions obtained were diluted with an equivalent volume of an aqueous mixture containing 2.5% (v/v) crop oil concentrate so that the final application solutions contained 1.25% (v/v) crop oil concentrate.
Applications were made by injecting with a pipetter appropriate amounts of the application solutions, individually and sequentially, into the aqueous layer of the paddy. Control plants were treated in the same manner with the solvent blank. Applications were made so that all treated plant material received the same concentrations of acetone and crop oil concentrate.
The treated plants and control plants were placed in a greenhouse as described above and water was added as needed to maintain a paddy flood. […]

## COc1c(Cl)ccc(-c2nc(C(=O)O)c(Cl)c(N)c2F)c1F [Compound A Acid, 4-amino-3-chloro-6-(4-chloro-2-fluoro-3-methoxyphenyl)-5-fluoropyridine-2-carboxylic acid]
17.5 gae/ha
  Visual Weed Control (%) - 21 DAA FIMMI Obs: 85%
35 gae/ha
  Visual Weed Control (%) - 21 DAA FIMMI Obs: 85%

## COc1c(Cl)ccc(-c2nc(C(=O)OCc3ccccc3)c(Cl)c(N)c2F)c1F [Compound A Benzyl Ester, benzyl ester of 4-amino-3-chloro-5-fluoro-6-(4-chloro-2-fluoro-3-methoxy-phenyl)pyridine-2-carboxylic acid]
8 gae/ha
  Visual Weed Control (%) - 21 DAA FIMMI Obs: 15%
16 gae/ha
  Visual Weed Control (%) - 21 DAA FIMMI Obs: 65%
